Data set [1] has as its target cAMP-dependent kinase type I (FICRhR) (Bos taurus, UniProt P00514). Type of data set: biochemical. The source says: When PKA is doubly labeled with fluorescein on its catalytic subunits and rhodamine on its regulatory subunits to produce FICRhR, fluorescence energy transfer from the fluorescein to rhodamine occurs in the holoenzyme complex but is disrupted upon activation and dissociation of the subunits. The change in the ratio of fluorescein to rhodamine emissions parallels the increase in kinase activity and can be nondestructively imaged in single cells. REF-52 fibroblasts were microinjected with FICRhR and emission ratio images recorded at room temperature as previously described (27).

The next data set can be described thus: Membrane permeability. Type of data set: in vitro ADME.
In data set [2] the test system is cAMP-dependent protein kinase (PKA). Type of data set: cell-based.
A further data set has as its system angelfish melanophores. Kind of data set: Pigment dispersion in fish dermal melanophores. Type of data set: cell-based, angelfish (Pterophyllum scalare). As to conditions: for reversibility of dispersion: removal of compound and epinephrine. The procedure: Melanophores permit a visual single-cell assay for the ability of cAMP analogs to enter cells and mimic cAMP actions. The melanophores were isolated on angelfish scales and the epidermis was stripped off. […] Dispersion was just detectable at 1 μM and half-maximal near 10 μM (FIG. 3A). […] The preceding examples are summarized in (64).

The test system of another data set is intestinal cell line T84. The data set is described as follows: cells. The settings on record: for EC50: 0.2 h, T84, ISC 12 min after addition, read-out: EC50 (chloride secretion). It counts as cell-based. The source says:
A convenient test system is the intestinal cell line T84, in which chloride secretion can be continuously monitored by mounting confluent monolayers of cells in Ussing chambers (42).

A short description of the next data set: Chemical stability. It counts as physicochemical.
For data set [3], the system named is P388D1 macrophage-like cells. The data set is described as follows: [Ca2+]i response before and after UV uncaging, fluo-3. Type of data set: cell-based. The settings on record: for [Ca2+]i after UV (360 nm, 10 s): 20 μM. The procedure: The cells were loaded with fluo-3/AM. During the experiment the cells were bathed in HBS buffered with 20 mM Hepes at pH 7.4 and supplemented with 2 g/L glucose.
Another example was carried out in P388D1 macrophage-like cells.
Studies by Asmis et al. (92) have shown that, in P388D1 macrophage-like cells, PAF stimulated PGE2 production is mediated through two separate signals: IP3 induced [Ca^2+ ]i increase and another unidentified signal. IP3 -CPM might serve as a new tool for detailed study of PGE2 formation and AA release in relation to IP3 and [Ca^2+ ]i in these cells. One of the major advantages of using permeant IP3 derivatives is that experiments can be easily carried out in a population of cells, which is required for the measurement of AA release and PGE2 formation.

Data set [4] concerns 1321N1 astrocytoma cells. Described as above. Type of data set: cell-based. The procedure: (b) Same experiment as (a) except done in Ca^2+ free medium (DPBS, O Ca^2+, 0.5 mM EGTA). UV exposure of the cells treated with IP3 -CPM still gave the same response, showing that the [Ca^2+ ]i increase resulted from the release of Ca^2+ from internal stores. […] The cells were loaded with fluo-3/AM. During the experiment the cells were bathed in HBS buffered with 20 mM Hepes at pH 7.4 and supplemented with 2 g/L glucose.
The [Ca^2+ ]i was monitored using the calcium indicator fluo-3 rather than fura-2 to keep the excitation wavelength of the indicator (490 nm) far from the uncaging wavelength (360 nm) of DMNB group. […] Compared to the photolyzing set-up (direct illumination by a hand mercury lamp) used for the IP3 -binding assay, the optical throughput from the source lamp to the specimen is much higher in a microscope, so 10 seconds (as opposed to 2 hours in IP3 binding assay) of photolysis was sufficient to produce enough IP3 to elicit [Ca^2+ ]i increase. The same amount of UV alone had no effect at all on [Ca^2+ ]i in cells not treated with IP3 -CPM. After recovering from uncaging of IP3 -CPM, the cells responded to subsequent carbachol and thapsigargin stimulation normally.
This confirmed that the [Ca^2+ ]i increase due to uncaging of IP3 -CPM resulted from internal Ca^2+ release, which was consistent with the normal mechanism of IP3 action.

The test system of data set [5] is human embryonic kidney cells (HEK cells). The data set is described as follows: [Ca2+]i response on flash photolysis of loaded cells. Type of data set: cell-based. As to the method:
In human embryonic kidney cells (HEK cells), the extracellular IP3 -CPM was washed away after the cells had been loaded with 50 μM of IP3 -CPM for 20 minutes. […] Cells in the same dish which had not been exposed to UV light were kept in the dark for over 6 hours. […] However, pretreatment of IP3 -CPM with acetic acid will unmask the 3-hydroxyl and enable the intracellular phosphorylation of delivered IP3.

The test system of data set [6] is 1321N1 astrocytoma cells. Kind of data set: [Ca2+]i response before and after UV uncaging, fluo-3. Type of data set: cell-based. As to conditions: with extracellular Ca2+.
The mark [7] stands for this setting: 20 μM extracellular, about/over 5 min.

Broadly, the EC50 is the concentration at which the effect is half-maximal.

“Also recorded” adds a separate entry of the source.

Sequence of cAMP-dependent kinase type I (FICRhR) (P00514 whole entry): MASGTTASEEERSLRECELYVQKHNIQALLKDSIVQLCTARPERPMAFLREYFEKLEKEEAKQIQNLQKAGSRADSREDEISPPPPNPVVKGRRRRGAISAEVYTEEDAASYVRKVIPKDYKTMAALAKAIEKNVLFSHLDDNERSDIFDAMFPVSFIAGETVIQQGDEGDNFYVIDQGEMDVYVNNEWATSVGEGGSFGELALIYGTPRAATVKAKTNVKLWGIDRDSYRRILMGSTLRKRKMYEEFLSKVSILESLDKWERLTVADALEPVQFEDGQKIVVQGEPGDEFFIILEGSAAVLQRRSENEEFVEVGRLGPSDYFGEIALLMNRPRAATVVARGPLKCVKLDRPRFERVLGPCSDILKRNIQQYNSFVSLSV

`CCCC(=O)Nc1ncnc2c1ncn2[C@@H]1O[C@@H]2COP(=O)(O)O[C@H]2[C@H]1OC(=O)CCC` [Bt2 cAMP, N^6,O^2' -dibutyryl cAMP, reference compound]: the “potency relative to cAMP” value in [1] (in vitro binding to FICRhR) is given as “roughly 1/100”. The “membrane permeability (in words)” value in “Membrane permeability” is given as “poor permeability”. For the same compound, the “delay and overall time course of PKA activation (in words)” value in data set [2] (REF-52, extracellular) was “Much the same delay and overall time course”. In addition, the pigment dispersion result with angelfish melanophores (1 mM) is listed as “unable to cause any detectable dispersion”. Moreover, the EC50 with intestinal cell line T84 worked out at 400 µM.

Take `CCCC(=O)Nc1ncnc2c1ncn2[C@@H]1O[C@@H]2COP(=O)(OCOC(C)=O)O[C@H]2[C@H]1OC(=O)CCC` (some centres unmarked) [Bt2 cAMP/AM, N^6,O^2' -Dibutyryl Adenosine 3',5'-cyclic Monophosphate Acetoxymethyl Ester]: the “separation of the subunits of FICRhR (in words)” value in data set [1] (in vitro, 10 μM) was “no separation of the subunits”. The “onset of separation of regulatory and catalytic subunit of FICRhR after addition” value in data set [2] (REF-52, extracellular) is on record as “roughly 2 min”. The “plateau, % of the maximal change in fluorescence ratio” value in [2] (REF-52, extracellular 1 μM) is “over 50%”. The “change in fluorescence ratio (PKA activation)” value in data set [2] (REF-52, extracellular 10 μM, within 15 min) is “maximal change in fluorescence ratio within 15 min”. Further, the “increase in potency by AM ester group vs Bt2 cAMP” value in the data set on angelfish melanophores was “more than 1000”. Besides, in the data set with angelfish melanophores (100 μM), the pigment dispersion entry is “essentially complete dispersal” and the reversibility of dispersion result is reported as “easily reversed”. Further, in the data set on angelfish melanophores (1 mM), the reversibility of dispersion result is “could not be readily reversed”. Besides, the onset of dispersion entry in the data set on angelfish melanophores (1 mM, vs 100 μM) was “slightly faster onset of action”. The EC50 in the data set with intestinal cell line T84 was determined as 2 µM. The “increase in potency by acetoxymethyl group vs Bt2 cAMP” value in the data set on intestinal cell line T84 (T84) was found to be 200 fold. In the data set with intestinal cell line T84 (T84, Bt2 cAMP/AM vs Bt2 cAMP), the “kinetics of activation of chloride secretion (in words)” value is “essentially indistinguishable kinetics of activation”.

`CCC(=O)OCOP(=O)(OCOC(=O)CC)O[C@@H]1[C@@H](OCc2cc(OC)c(OC)cc2[N+](=O)[O-])[C@H](OP(=O)(OCOC(=O)CC)OCOC(=O)CC)[C@@H]2OC(OC)O[C@@H]2[C@H]1OP(=O)(OCOC(=O)CC)OCOC(=O)CC` (stereo partly drawn) [IP3 -CPM, D-2,3-O-methoxymethylene-6-O-(4,5-dimethoxy-2-nitrobenzyl)-myo-Inositol 1,4,5-trisphosphate hexakis(propionyloxymethyl)ester]: in “Chemical stability”, the “chemical stability vs commercially available caged IP3” value was “chemically more stable”. Moreover, the “[Ca2+]i time course after uncaging” value is given as “went back to the basal level in a short time” in data set [3], “soon went back to the resting level” in the data set with 1321N1 astrocytoma cells [4] (Ca2+ free medium) and “remained elevated above the resting level” with 1321N1 astrocytoma cells [6]. In addition, the “[Ca2+]i after UV (360 nm, 10 s)” value in [3] is “released a fair amount of Ca^2+ from internal stores”; in data set [3] (listed as IP3 -CPM (V-1)) it was “big [Ca^2+ ]i increase”; with 1321N1 astrocytoma cells [4] (20 μM, Ca2+ free medium (0.5 mM EGTA), listed as IP3 -CPM (V-1)) it was “same response”; in the data set with 1321N1 astrocytoma cells [6] (20 μM) it was “almost saturating [Ca^2+ ]i increase”. In addition, the “[Ca2+]i before UV” value (in [3] (setting [7]); in the data set with 1321N1 astrocytoma cells [4] (setting [7])) was “no effect on [Ca^2+ ]i” in each case. The “extracellular concentration eliciting maximal Ca2+ release upon uncaging” value in the data set with 1321N1 astrocytoma cells [4] (1321N1 astrocytoma cells) is recorded as 10^-6 to 10^-5 M. Further, the “membrane permeability (in words)” value in “Membrane permeability” is “crossed the cell membrane”. Moreover, the “[Ca2+]i on photolysis (1 ms flash)” value in data set [5] (loaded 50 μM, 20 min, washed) is “transient increase in [Ca^2+ ]i”. In addition, the “persistence of [Ca2+]i response to repeated flashes” value in data set [5] (loaded 50 μM, 20 min, washed) was “persisted for up to a dozen repetitions”. For the same compound, the “[Ca2+]i on photolysis after dark storage” value in data set [5] (over 6 hours in the dark after loading) is “[Ca^2+ ]i increases similar to those obtained immediately after being loaded; also recorded: full-scale [Ca^2+ ]i increases”.
